This assay has as its target T1, mAPXmEGFP (Glycine max, UniProt Q43758, K14D/E112K).
T1 construct: gene apx1; monomeric K14D/E112K APX fused to mEGFP reporter; N-terminal His tag, pLEICS-45; pea, Pisum sativum, possible
T1 sequence (Q43758 1-250 K14D/E112K): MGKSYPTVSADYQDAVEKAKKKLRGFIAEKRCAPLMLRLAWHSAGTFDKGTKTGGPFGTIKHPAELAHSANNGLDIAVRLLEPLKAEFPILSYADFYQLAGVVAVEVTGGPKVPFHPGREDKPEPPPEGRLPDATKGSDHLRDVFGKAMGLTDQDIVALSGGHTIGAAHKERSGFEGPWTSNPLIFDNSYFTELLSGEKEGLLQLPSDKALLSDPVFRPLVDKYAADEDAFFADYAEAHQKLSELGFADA
The assay is described as follows: time-correlated single-photon counting fluorescence lifetime titration of apo protein, […] binding model. The note with it: 37 °C, 10 mM potassium phosphate pH 7, 1 uM protein.

A word on the Kd: it is the concentration at which binding is half-saturated.

The molecule `C=CC1=C(C)C2=Cc3c(C=C)c(C)c4[n]3[Fe]([Cl])[n]3c(c(C)c(CCC(=O)O)c3=CC3=NC(=C4)C(C)=C3CCC(=O)O)=CC1=N2` [heme] displayed a Kd of 22 nM.

The values above are taken from article PMC8179208, “Unravelling the mechanisms controlling heme supply and demand” (Proceedings of the National Academy of Sciences of the …, 2021).
